Measured values as given in patent publication US20240409899A1, “PRODUCTION OF HEPATOCYTES” (Cambridge Enterprise Limited (GB/GB), priority 2021, published 2024).

Experiments:
FoP-Heps [1] = test: Fatty acid treatment, intracellular lipid accumulation (BODIPY staining) in 3D FoP-Heps; assay type: cell-based, human; conditions: 0.25 mM conjugated with BSA, 7 days, 3D culture from day 20; 4TF eFoP- and iFoP-Heps; BSA control
Protocol: (§1) Forward programmed cells were embedded in 3D from day 20 and cultured for 7 days in Hepatozyme complete medium supplemented with either BSA (control), or oleic acid (0.25 mM) or palmitic acid (0.25 mM) conjugated with BSA. Intracellular lipid accumulation was detected by incubating cells with 1 μl/ml Bodipy (Thermo scientific) for 30 minutes, followed by DAPI (Hoechst) diluted 1:10.000 in PBS for 30 minutes and imaged on a Zeiss LSM 700 confocal microscope.

FoP-Heps [2] = test: Fatty acid treatment, cell viability (Presto Blue) in 3D FoP-Heps; assay type: cell-based, human; conditions: 0.25 mM conjugated with BSA, 7 days, 3D culture from day 20; 4TF FoP-Heps; normalised against BSA control
Protocol: as §1
(§2) Cell viability was determined by incubating cells with 1:10 Presto Blue reagent (Invitrogen) in Hepatozyme complete medium at 37° C. for 4 hours. Fluorescence was measured using the EnVision plate reader with an excitation emission of 560 nm/590 nm.

FoP-Heps [3] = test: APAP toxicity, cell viability (Presto Blue) in 3D FoP-Heps; assay type: cell-based, human; conditions: 25 mM for 48 h (day 18 to day 20), 3D cultures; 4TF FoP-Heps; normalised against untreated
Protocol: The hepatotoxicity of acetaminophen (APAP) was tested by incubating forward programmed cells cultured in 3D from day 15 in Hepatozyme complete medium supplemented with 25 mM acetaminophen (R&D) for 48 h hours (day 18 to day 20) after which cell viability was determined.
as §2

FoP-Heps [4] = test: CYP3A4 activity (P450 Glo) in FoP-Heps treated with exogenous nuclear receptor ligands; conditions: for effect on CYP3A4 activity: vs untreated control, FoP-Heps with 3TFs plus the ligand's nuclear receptor (AR for testosterone, RORc for desmosterol)
Protocol: hPSCs were dissociated into single cells following incubation with StemPro Accutase (Thermo Fisher) for 5 minutes at 37° C. and seeded at a density of 40-50.000 cells/cm2 in E8 medium supplemented with 10 μM ROCK Inhibitor Y-27632 (Selleckchem). E8 medium was replenished the following day. Following 48 h, initial induction of the transgenes was achieved by incubation in E6 medium (E8 without growth factors) supplemented with […] doxycycline (dox) for 24 h. Cells were then maintained in Hepatozyme complete medium supplemented with […] dox for the remaining duration of the protocol. Medium was replenished every day for the next 4 days, and every other day here after. For specific experiments, cell lines were treated with 100 nM of desmosterol, testosterone or […] (E2) from day 2 of forward programming. All ligands were purchased from Sigma-Aldrich and reconstituted in ethanol. For 3D cultures, forward programmed cells were embedded in Matrigel Growth Factor Reduced Basement Membrane Matrix, Phenol Red-free (Corning) at day 15 or day 20 and cultured for 5 days or 10 days, respectively. Cells were dissociated with Hank's based cell dissociation buffer (Gibco) for 20 minutes at 37° C., resuspended in Matrigel and seeded in 40-50 μL domes in Hepatozyme complete medium supplemented with […] dox.
Measurement of CYP3A4 enzymatic activity was performed using the P450 Glo kit (Promega). Cells were incubate with 1:1000 luciferin-IPA in Hepatozyme complete for 1 h at 37° C. Supernatant was mixed with detection reagent in a 1:1 ratio and incubated at RT for 20 minutes in Greiner white 96 well microplates (Sigma Aldrich). Luminescence was measured in triplicate on a GloMax plate reader. Hepatozyme complete medium was used as background control. Relative light units were normalised for background, volume and average total number of cells obtained after differentiation.

[5] = 100 nM ligand from day 2, day 20 of forward programming

In the case of CCCCCCCC/C=C\CCCCCCCC(=O)O [OA, oleic acid], the “accumulation of lipids (BODIPY staining)” value (FoP-Heps [1]) is reported as “strong accumulation of lipids”.
In the case of CCCCCCCCCCCCCCCC(=O)O [PA, palmitic acid], the “cell viability (lipotoxicity)” value (FoP-Heps [2]) is reported as “reduction in cell viability”.
With CC(=O)Nc1ccc(O)cc1 [acetaminophen] the “reduction in cell viability” value (FoP-Heps [3]) was 50%.
In the case of CC(C)=CCC[C@@H](C)[C@H]1CC[C@H]2[C@@H]3CC=C4C[C@@H](O)CC[C@]4(C)[C@H]3CC[C@]12C [desmosterol], the “effect on CYP3A4 activity” value (FoP-Heps [4]; [5]) is reported as “no effect”.
With C[C@]12CC[C@H]3[C@@H](CCC4=CC(=O)CC[C@@]43C)[C@@H]1CC[C@@H]2O [testosterone] the “effect on CYP3A4 activity” value (FoP-Heps [4]; [5]) was “significantly decreased”.
For β-estradiol [p3-estradiol], the “increase in CYP3A4 activity” value (FoP-Heps [4]; 100 nM ligand from day 2, day 20 of forward programming, normalised to untreated control, FoP-Heps with 3TFs plus the ligand's nuclear receptor (ERα)) was 3 fold and the “increase in CYP3A4 activity in 3TFs FoP-Heps” value (FoP-Heps [4]; 3TFs FoP-Heps without overexpressed nuclear receptor, 100 nM ligand) was “not observed”.
